1 sequence from patent publication US20200230205A1, “COMPOSITIONS AND METHODS FOR TREATING MYELIN DISORDERS” (CASE WESTERN RESERVE UNIVERSITY, priority 2017, published 2020) can be followed below.

The experiment has as its system laminin. Description: Laminin degradation by OPC conditioned media (spot staining and western blot). In kind it is cell-based, mouse. On the procedure:
CSPG gradients were prepared as described previously (Tom, V. J., et al. Studies on the Development and Behavior of the Dystrophic Growth Cone, the Hallmark of Regeneration Failure, in an In vitro Model of the Glial Scar and after Spinal Cord Injury.). 24-well glass coverslip were coated with poly-L-lysine and nitrocellulose, and a mixture of 700 μg/mL aggrecan (A1960 Sigma) and 10 μg/mL laminin (11243217001 Sigma) spotted on the coated coverslip. After drying, coated coverslips were then incubated with laminin at 37° C. for 3h. Purified OPCs were plated at a density of 10,000/coverslip and cultured in DMEM/F12 medium containing with N2, PDGF (20 ng/ml), FGF (20 ng/ml), NT-3 (5 ng/ml), CNTF (O1 ng/ml), Glutamine (200 mM). Coverslips were stained with CS-56 (C8035, Sigma, 1:500) and O4 antibodies (Hybridoma Core Cleveland Clinic, 1:10). O4-positive cells crossing the aggrecan border were counted for each spot. For CSPG gradient quantification, 1×10^6 OPCs were plated per well on PLL, 1 μg/mL laminin, and 2 μg/mL aggrecan coated 6-well plates. OPCs treated with vehicle, 2.5 μM ISP, or 2.5 μM SISP for 2 days at 37° C. CM was harvested and incubated with freshly made spots. […] Using ImageJ software (NIH), pixel intensities of the CS-56 or laminin spot rims were quantified using the same ROI. […]
A general note: A western blot detects proteins with antibodies after separation by electrophoresis.

For the sequence “GRKKRRQRRRCDMAEHMERLKANDSLKLSQEYESI [ISP]”, the “laminin portion of the spot, immunostaining” value (CM of OPCs treated with 2.5 μM ISP) was “completely spared”. For the same sequence, for the setting “OPC CM, 2.5 μM ISP, laminin 10 μg/mL”, the laminin immunoblot entry is “no significant changes”.
